Data reported in US12479809B2, “Hydrazone amide derivative and application thereof in preparation of medicaments for preventing and treating alopecia” (SHENZHEN CELL INSPIRE PHARMACEUTICAL DEVELOPMENT CO., LTD., priority 2019, dated 2025).

Tested on: alopecia in mice
Assay: Animal experiment: therapeutic effect on alopecia in bilaterally ovariectomized mice after oral administration
Type: in vivo
Conditions: for Cured / Ineffective / Ameliorated: number of mice of 10 per group; for Cured / Ineffective / Ameliorated / cure rate / Total effective rate (%) / back hair of mice after administration (FIGS. 3, 8 and 9): ovariectomized female mice, oral 10 mg/kg/day, 4 weeks; for Cured: cured = no difference with the normal group; for Ineffective: no difference from the model group; for Ameliorated: significant difference from the model group; for cure rate / Total effective rate (%): 10 mice per group; for back hair of mice after administration (FIGS. 3, 8 and 9): compared with the normal group (FIG. 1); for promoting hair follicle growth: summary statement
Protocol: Experiment method: 100 8-week-old female mice were divided into 10 groups with 10 mice in each group. They were randomly divided into a normal group, a model group and administration groups. The mice in the model group and the administration groups were fasted overnight and subjected to bilateral ovariectomy after anesthesia with 0.1 ml of 10% chloral hydrate. After the bilateral ovariectomy, penicillin injection 0.1 ml/per mouse was injected once a day for seven times to prevent infection. After 4 weeks of modeling, the experiment was carried out by oral administration. The medicament was prepared with normal saline, and administered 10 mg/kg/day to each mouse in the administration groups. The normal group and model group were given only normal saline. After 4 weeks of administration, the hair on the back of the mice was observed.
Cured: Alopecia was completely cured, with no difference with the normal group.
Ameliorated: Alopecia was ameliorated, with significant difference from the model group, but small difference from the normal group.
Ineffective: Alopecia was not ameliorated, with no difference from the model group.

CC(=O)/C(=N\Nc1ccccc1C(=O)O)C(=O)N1CCOCC1 [Compound 28]
Cured: 10 | Ineffective: 0 | Ameliorated: 0 | cure rate: 100% | Total effective rate (%) (10 mg/kg/day): 100% | back hair of mice after administration (FIGS. 3, 8 and 9): completely recovered | promoting hair follicle growth: significant advantages

CCOC(=O)c1sc(NC(=O)/C(=N/Nc2ccc(F)cc2C(=O)O)C(C)=O)nc1C [Compound 10]
Cured: 2 | Ineffective: 5 | Ameliorated: 3 | Total effective rate (%): 50%

CC(=O)/C(=N\Nc1ccccc1C(=O)O)C(=O)Nc1ccccc1 [Compound 24]
Cured: 10 | Ineffective: 0 | Ameliorated: 0 | cure rate: 100% | Total effective rate (%) (10 mg/kg/day): 100% | back hair of mice after administration (FIGS. 3, 8 and 9): completely recovered | promoting hair follicle growth: significant advantages

CC(=O)/C(=N\Nc1ccccc1C(=O)O)C(=O)Nc1cccc(O)n1 [Compound 30]
Cured: 4 | Ineffective: 3 | Ameliorated: 3 | Total effective rate (%): 70%

CCOC(=O)c1sc(NC(=O)/C(=N/Nc2ccccc2C(=O)OC)C(C)=O)nc1C [Compound 4]
Cured: 8 | Ineffective: 0 | Ameliorated: 2 | Total effective rate (%) (10 mg/kg/day): 100% | promoting hair follicle growth: significant advantages

CCOC(=O)c1sc(NC(=O)/C(=N/Nc2c(C#N)cccc2C(=O)O)C(C)=O)nc1C [Compound 12]
Cured: 8 | Ineffective: 1 | Ameliorated: 1 | Total effective rate (%): 90%
